The values that follow come from patent US20210145801A1, “THERAPY FOR PROTEIN MISFOLDING DISEASE” (WREN THERAPEUTICS LIMITED, priority 2018, published 2021).

One experiment addresses T1, Aβ42 oligomers (Homo sapiens, UniProt P05067).
T1 construct: made in house; host or cells: E. coli BL21 Gold (DE3)
Nature of the experiment: ELISA with oligomer-specific antibody. The conditions noted are these: 5 μM Aβ42; 5-fold excess; at half-time of Aβ42 alone. The experiment is classed as biochemical. On the procedure:
20 μl Aliquots were taken at the t50 (i.e. half-time) from aggregation reactions of 5 μM Aβ42 in the absence and in the presence of 5-fold excess of Netoglitazone. Samples were then immobilised on a 96-well Maxisorp ELISA plate (Nunc, Roskilde, Denmark) with no shaking for 1 h at room temperature. The plate was then washed three times with 20 mM Tris pH 7.4, 100 mM NaCl and incubated in 20 mM Tris pH 7.4, 100 mM NaCl, 5% BSA under constant shaking overnight at 4° C. The day after the plate was washed six times with 20 mM Tris pH 7.4, 100 mM NaCl and then incubated with 30 μl solutions of 5 μM oligomer-specific antibody under constant shaking either for 1 hour or overnight at room temperature. At the end of this incubation, the plate was washed six times with 20 mM Tris pH 7.4, 100 mM NaCl and incubated with 30 μl solutions of Rabbit polyclonal to 6× His Tag® HRP conjugated (Abcam, Cambridge, UK) at a dilution of 1:4000 in 20 mM Tris pH 7.4, 100 mM NaCl, 5% BSA under shaking for 1 hour at room temperature. […] Finally, the amount of bound oligomer-specific antibody was quantified by using 1-Step™ Ultra TMB-ELISA Substrate Solution (ThermoFisher Scientific, Waltham, Mass., United States), according to manufacturer instructions, and measuring the absorbance at 450 nm by means of a CLARIOstar plate reader (BMG Labtech, Aylesbury, UK).
Background: ELISA stands for enzyme-linked immunosorbent assay.

In a further experiment the test system is AD worms (GMC101). Nature of the experiment: Automated motility assay (WF-NTP) in AD worms. The experiment is classed as in vivo, C. elegans. On the procedure: Standard conditions were used for the propagation of C. elegans (S. Brenner, The genetics of Caenorhabditis elegans. Genetics. 77, 71-94 (1974)). Briefly, the animals were synchronized by hypochlorite bleaching, hatched overnight in M9 buffer (3 g/l KH2PO4, 6 g/l Na2HPO4, 5 g/l NaCl, […]), and subsequently cultured at 20° C. on nematode growth medium (NGM) (CaCl2) 1 mM, MgSO4 1 mM, cholesterol 5 μg/mL, PBS Buffer (250 μM KH2PO4, 67.5 μM KCl, 3.425 mM of NaCl, pH 6), Agar 17 g/L, NaCl 3 g/1, casein 7.5 g/l) plates seeded with the E. coli strain OP50. Saturated cultures of OP50 were grown by inoculating 50 ml of LB medium (tryptone 10 g/l, NaCl 10 g/1, yeast extract 5 g/l) with OP50 and incubating the culture for 16 h at 37° C. NGM plates were seeded with bacteria by adding 350 μl of saturated OP50 to each plate and leaving the plates at 20° C. for 2-3 days. On day 3 after synchronisation, the animals were placed on NGM plates containing 5-fluoro-2′deoxy-uridine (FUDR) (75 μM, unless stated otherwise) to inhibit the growth of offspring.
GMC101 dvIs100 [unc-54p::A-beta-1-42::unc-54 3′UTR+mtl-2p::GFP]. mtl-2p::GFP produces constitutive expression of GFP in intestinal cells. unc-54p::A-beta-1-42 expresses full-length human Aβ42 peptide in body wall muscle cells that aggregates in vivo. […]
All C. elegans populations were cultured at 20° C. and developmentally synchronized from a 4 h egg-lay. At 64-72 h post-egg-lay (time zero), individuals were transferred to FUDR plates, and body movements were assessed over the times indicated. At different ages, the animals were washed off the plates with M9 buffer and spread over an OP-50 unseeded 9 cm plate, after which their movements were recorded at 20 fps using a recently developed microscopic procedure (M. Perni et al., Massively parallel C. elegans tracking provides multi-dimensional fingerprints for phenotypic discovery. J. Neurosci. Methods. 306, 57-67 (2018)) for 1 min. Up to 600 animals were counted in each experiment in duplicate unless stated otherwise. One experiment that is representative of the three or more measured in each series of experiments is shown, and videos were analysed using a custom-made tracking code (M. Perni et al., Massively parallel C. elegans tracking provides multi-dimensional fingerprints for phenotypic discovery. J. Neurosci. Methods. 306, 57-67 (2018)).
In order to screen for the effect of therapeutics in the most robust way, a wide field-of-view nematode-tracking platform (WF-NTP) was used, which enables the simultaneous investigation of multiple phenotypic readouts on large worm populations. The WF-NTP monitors up 5000 animals in parallel, and the phenotypical readout includes multiple parallel parameters.

Experiment [1] has as its system ROS production in AD worms. As to the kind of experiment: ROS production (ROS-Glo H2O2 assay) in AD worms. In kind it is in vivo, C. elegans. The conditions noted are these: 5 μM administered at L4; D5 of adulthood. The procedure: ROS-Glo™ H2O2 cell kit assay was used (Promega, Fitchburg, Wis., USA) and adapted for C. elegans studies. The ROS-Glo™ H2O2 Assay is a bioluminescent assay that measures the level of H2O2, a reactive oxygen species (ROS), directly in cell culture or tissue or in defined enzyme reactions. A derivatized luciferin substrate is incubated with sample and reacts directly with H2O2 to generate a luciferin precursor. Worms treated with 5 μM Netoglitazone in 1% DMSO or 1% DMSO only were washed using M9 buffer out the NGM plates. The buffer was then changed 3 times to remove the excess bacteria. Worm pellets were then divided in three wells and 80 μl of worm pellet (around 200 worms/well) was incubated for 6 h at RT with 20 μl of a ROS Substrate Solution (Promega, Fitchburg, Wis., USA); mild shaking at 300 rpm was used to avoid worm sedimentation; afterwards, worms were incubated for ca. 20 min with 100 μl of the detection solution; luminescence was then measured with a Clariostar (BMG Labtech, Aylesbury, UK).

The mark [2] stands for this setting: administered at D3, read at D5 of adulthood.

Entries after “also recorded” stand apart in the source; their conditions may differ.

T1 sequence (P05067 671-713): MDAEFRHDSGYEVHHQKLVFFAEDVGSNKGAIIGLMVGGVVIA

Regarding `O=C1NC(=O)C(Cc2ccc3cc(OCc4ccccc4F)ccc3c2)S1` (stereo not drawn) [Netoglitazone], at Aβ42 oligomers, the “Aβ42 oligomer concentration (ELISA)” value is on record as “significant reduction in the Aβ42 oligomer concentration”. In the experiment with AD worms (GMC101) (setting [2]), the “Motility of AD worms after late administration” value is given as “increase of the worm's mobility; also recorded: improves motility”; the “Survival rate of AD worms after late administration” value is “increase of the worm's mobility and survival rate; also recorded: improves motility (i) and survival rates”. The “Recovery of dysfunctional phenotype / mobility of AD worms” value with AD worms (GMC101) (administered at L4, 0.05-10 μM) is “dose dependent and statistically significant recovery in the dysfunctional phenotype”. Moreover, the “Concentration range of best/maximum protective effect on mobility” value in the experiment on AD worms (GMC101) (administered at L4, D3 of adulthood) lay within 0.5 to 5 µM. The “ROS production / levels of oxidative species in AD worms” value in experiment [1] is listed as “significantly decreased the levels of oxidative species; also recorded: restores the ROS production in AD worms to normal levels”.
